Where a name gives a salt, the structure may show the parent alone.

The text below walks through data of US20070105910A1, “Medicinal composition” (priority 2003, published 2007).

This data set can be described thus: Repeated oral administration test for 10 days using rats: blood hemoglobin (Hb). To be noted: SD rats; after 10 days oral administration; pioglitazone hydrochloride 240 mg/kg/day, benfotiamine 100 mg/kg/day where combined. The data set is classed as in vivo. As to the method: After termination of the administration, the blood was collected from the rats and the hemoglobin (Hb) value was determined. Then, the rats were killed, and their hearts were weighed (relative weight).

On to `CCc1ccc(CCOc2ccc(CC3SC(=O)NC3=O)cc2)nc1` (stereo not shown) [Pioglitazone HCl, pioglitazone hydrochloride], for which the “Blood Hb conc. after administration” value came to 13.6 g/dL.
